Test results as given in patent publication US10344026B2, “Compositions and methods of targeting mutant K-ras” (NANTBIO, INC., priority 2017, dated 2019).
Where two headings read alike, the source gives them in different places.

How the values were obtained:
Assay type in all cases: cell-based
[1] = tested on: Ishikawa (K-Ras wild type cell line); experiment: Viability assay (CellTiterBlue, 72 hr) Ishikawa; conditions: Homo sapiens, GI50, CellTiterBlue
Method: (§1) Viability assays were performed on exemplary compounds and Table 2 below lists exemplary results for selected compounds tested on K-Ras wild type cell lines (Ishikawa, U87-MG, HCC827, and A375) and various K-Ras mutant cell lines (Panc1-G12D; Panc10.05-G12D; HCT116-G31D). Results are expressed in μM and corresponding structures are shown in FIGS. 2A-2G and Examples 1-152, above.
(§2) Cells are counted and seeded at 1000 cells/36 ul medium/well into 384-well microplates. Cells are returned to 37° C. CO2 incubator for 18 hr. Drug is made as 200× in DMSO and diluted into medium to 10×. To each well is added 4 ul 10× drug, and plates are returned to the incubator. Final assay DMSO concentration is 0.5%. After 72 hr, 8 ul CellTiterBlue (Promega) is added to each well. After 3 hr, fluorescence (Ex550/Em590) is determined on the Victor Plate Reader (Perkin Elmer). Assay range is determined by DMSO control (100% viability) and 100 uM tamoxifen (0% viability). GI50 values are calculated using Graphpad Prism.

[2] = tested on: U87-MG (K-Ras wild type cell line); experiment: Viability assay (CellTiterBlue, 72 hr) U87-MG; conditions: Homo sapiens, U-87 MG, GI50, CellTiterBlue, U87-MG K-Ras wild-type
Method: as §1, §2

[3] = tested on: Panc1-G12D; experiment: Viability assay (CellTiterBlue, 72 hr) Panc1; conditions: Homo sapiens, PANC-1, GI50, CellTiterBlue, read-out: 72 hr Cell Viability Panc1 (G12D)
Method: as §1, §2

[4] = tested on: Panc10.05-G12D; experiment: Viability assay (CellTiterBlue, 72 hr) Panc10.05; conditions: Homo sapiens, Panc1005, GI50, CellTiterBlue, read-out: 72 hr Cell Viability Panc10.05 (G12D)
Method: as §1, §2

[5] = tested on: HCT116-G31D; experiment: Viability assay (CellTiterBlue, 72 hr) HCT116; conditions: Homo sapiens, HCT-116, GI50, CellTiterBlue, read-out: 72 hr Cell Viability HCT116 (G13D)
Method: as §1, §2

[6] = tested on: phospho-ERK in Panc1 (G12D); experiment: In-Cell Western phospho-ERK, Panc1; conditions: Homo sapiens, PANC-1, 1 h; Panc1, one hour treatment; read-out: In-Cell Western Panc1 (G12D) Erk (P)
Method: (§3) In-cell phosphorylation assays for Erk and Akt were performed on several of the compounds and exemplary results are shown in Table 3 below using HCC827 and A375 cell lines for wild type K-Ras and Panc1 and Panc10.05 cell lines for G12D K-Ras mutants. Results are expressed in μM and corresponding structures are shown in FIGS. 2A-2G and Examples 1-152, above.
(§4) Cells are seeded in complete medium into black sided, clear-bottom 384-well microplates at 3000 cells/[…]/well. Plates are returned to 37° C. CO2 incubator for 18 hr. Drug is made as 200× in DMSO and diluted into medium to 10×. To each well is added 4 ul 10× test article or controls, and plates are returned to the incubator. Final assay DMSO concentration is 0.5%. After one hour, cells are fixed in formaldehyde, rinsed & permeabilized with triton X-100, and blocked with BSA/Goat serum blocking solution. Primary phospho-Akt and phospho-ERK antibodies are added and plates are incubated overnight at 4° C. Plates are rinsed with Tween-20 wash buffer and secondary antibody (Goat anti-rabbit, Thermofisher) is added. After 2 hours, plates are rinsed in Tween-20 wash buffer, and then PBS. Plates are imaged on the Celigo (Nexcelom) and cellular fluorescence is quantitated. Full inhibition of phospho-Akt is achieved with 1 uM BEZ235 (Sellekchem), while full inhibition of phospho-ERK is achieved with 1 uM MEK Inhibitor II Calbiochem). EC50 values are calculated using Graphpad Prism.

[7] = tested on: phospho-Akt in Panc1 (G12D); experiment: In-Cell Western phospho-Akt, Panc1; conditions: Homo sapiens, PANC-1, 1 h; Panc1, one hour treatment; read-out: In-Cell Western Panc1 (G12D) Akt (P)
Method: as §3, §4

[8] = tested on: phospho-ERK in Panc10.05 (G12D); experiment: In-Cell Western phospho-ERK, Panc10.05; conditions: Homo sapiens, Panc1005, 1 h; Panc10.05, one hour treatment; read-out: In-Cell Western Panc10.05 (G12D) Erk (P)
Method: as §3, §4

[9] = tested on: phospho-Akt in Panc10.05 (G12D); experiment: In-Cell Western phospho-Akt, Panc10.05; conditions: Homo sapiens, Panc1005, 1 h; Panc10.05, one hour treatment; read-out: In-Cell Western Panc10.05 (G12D) Akt (P)
Method: as §3, §4

[10] = molecular target: T1, K-Ras G12D (Homo sapiens, UniProt P01116, G12D); experiment: G-LISA Ras activation, 293H cells transfected with G12D mutant; conditions: compound 1 hour
T1 construct: expressed in transfected cells; host or cells: 293H cells
T1 sequence (P01116 whole entry G12D): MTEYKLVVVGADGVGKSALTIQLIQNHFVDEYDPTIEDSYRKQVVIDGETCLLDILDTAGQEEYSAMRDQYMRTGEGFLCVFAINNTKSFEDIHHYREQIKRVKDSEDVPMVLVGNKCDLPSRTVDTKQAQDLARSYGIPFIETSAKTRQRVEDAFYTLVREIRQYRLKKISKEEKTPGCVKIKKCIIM
Method: (§5) 293H cells were seeded in 6-wells at 0.6×10^6 cells per well and transfected next day with 5 μg of Ras wild-type, or G12C, G12D or G12V mutant DNA plasmid vector using transfection reagent Lipofectamine 3000. Next day cells were treated with 3.125-25 μM of Ras compounds for 1 hour. Wild-type transfected cells were subsequently treated with 100 ng/ml EGF for 2 minutes. Cells were washed once in ice-cold PBS, lysed in complete lysis buffer on ice, and processed by G-LISA according to Cytoskeleton protocol.

[11] = tested on: HCC827 (K-Ras wild type cell line); experiment: Viability assay (CellTiterBlue, 72 hr) HCC827; conditions: Homo sapiens, GI50, CellTiterBlue
Method: as §1, §2

[12] = molecular target: T2, wild type K-Ras (Homo sapiens, UniProt P01116); experiment: G-LISA Ras activation, 293H cells transfected with Ras wild-type, EGF stimulated; conditions: compound 1 hour, then 100 ng/ml EGF 2 minutes
T2 construct: expressed in transfected cells; host or cells: 293H cells
T2 sequence (P01116 whole entry): as the sequence (P01116 whole entry G12D) above, with D12G counted along it
Method: as §5

| SMILES | IC50 ([1]; Ishikawa K-Ras wild-type) [µM] | IC50 [2] [µM] | IC50 ([3]; Panc1 K-Ras G12D) [µM] | IC50 ([4]; Panc10.05 K-Ras G12D) [µM] | IC50 ([5]; HCT116 K-Ras G13D) [µM] | EC50 [6] [µM] | EC50 [7] [µM] | EC50 [8] [µM] | EC50 [9] [µM] | IC50 [10] [µM] | IC50 ([11]; HCC827 K-Ras wild-type) [µM] | IC50 [12] [µM] | IC50 ([1]; Ishikawa cells (K-Ras wild-type)) [µM] | IC50 ([11]; HCC827 cells (K-Ras wild-type)) [µM] | IC50 ([3]; Panc1 cells (K-Ras G12D)) [µM] | IC50 ([4]; Panc10.05 cells (K-Ras G12D)) [µM] | IC50 ([5]; HCT116 cells (K-Ras G13D)) [µM] |
| --- | --- | --- | --- | --- | --- | --- | --- | --- | --- | --- | --- | --- | --- | --- | --- | --- | --- |
| Cc1nc(C)c(C(=O)Nc2nc(-c3ccc4c(c3)CCC(=O)N4)c(Cl)s2)s1 [Compound 144, N-(5-chloro-4-(2-oxo-1,2,3,4-tetrahydroquinolin-6-yl)thiazol-2-yl)-2,4-dimethylthiazole-5-carboxamide] | > 25 | 11 | 8 | 10 | > 25 | 6 | 16 | 10 | > 25 |  |  |  |  |  |  |  |  |
| CC(=O)Nc1nc(C)c(C(=O)Nc2nc(-c3ccc4c(c3)CCC(=O)N4)cs2)s1 [Compound 14, 2-acetamido-4-methyl-N-(4-(2-oxo-1,2,3,4-tetrahydroquinolin-6-yl)thiazol-2-yl)thiazole-5-carboxamide] | > 25 | > 25 | > 25 | 6 | > 25 | > 25 | > 25 | 26 |  |  |  |  |  |  |  |  |  |
| Cc1nc(CN)sc1C(=O)Nc1nc(-c2ccc3c(c2)CCC(=O)N3)cs1 [Compound 147, 2-(aminomethyl)-4-methyl-N-(4-(2-oxo-1,2,3,4-tetrahydroquinolin-6-yl)thiazol-2-yl)thiazole-5-carboxamide] | > 25 |  | 17 | 12 | > 25 | 12 | > 25 | 14 | > 25 | > 25 |  |  |  |  |  |  |  |
| Cc1cn(C)nc1C(=O)Nc1nc(-c2ccc3c(c2)CCC(=O)N3)cs1 [Compound 23, 1,4-dimethyl-N-(4-(2-oxo-1,2,3,4-tetrahydroquinolin-6-yl)thiazol-2-yl)-1H-pyrazole-3-carboxamide] | > 25 |  | > 25 | 2 | > 25 | > 25 | > 25 | > 25 | > 25 |  | > 25 |  |  |  |  |  |  |
| Cc1nc(C2CCN(C)CC2)sc1C(=O)Nc1nc(-c2ccc3c(c2)CCC(=O)N3)cs1 [Compound 16, 4-methyl-2-(1-methylpiperidin-4-yl)-N-(4-(2-oxo-1,2,3,4-tetrahydroquinolin-6-yl)thiazol-2-yl)thiazole-5-carboxamide] | > 25 | > 25 | 3 | 11 | 9 |  | > 25 |  | > 25 |  |  |  |  |  |  |  |  |
| Cc1nc(C)c(C(=O)Nc2nc(-c3ccc4c(c3)CCC(=O)N4)cs2)o1 [Compound 4, 2,4-dimethyl-N-(4-(2-oxo-1,2,3,4-tetrahydroquinolin-6-yl)thiazol-2-yl)oxazole-5-carboxamide] |  |  |  |  |  |  |  |  |  | 10.9 |  | 25.1 |  |  |  |  |  |
| Cc1nc(NS(C)(=O)=O)sc1C(=O)Nc1nc(-c2ccc3c(c2)CCC(=O)N3)cs1 [Compound 13, 4-methyl-2-(methylsulfonamido)-N-(4-(2-oxo-1,2,3,4-tetrahydroquinolin-6-yl)thiazol-2-yl)thiazole-5-carboxamide] | > 25 | > 25 | > 25 | > 25 | 21 |  | > 25 |  | > 25 |  |  |  |  |  |  |  |  |
| Cc1ncc(C(=O)Nc2nc(-c3ccc4c(c3)CCC(=O)N4)cs2)c(C)n1 [Compound 148, 2,4-dimethyl-N-(4-(2-oxo-1,2,3,4-tetrahydroquinolin-6-yl)thiazol-2-yl)pyrimidine-5-carboxamide] |  |  |  |  |  | > 25 | > 25 | > 25 | > 25 |  |  |  | 18 | 11 | 4 | 2 | > 25 |
| Cc1nc(NC(=O)Nc2ccccc2)sc1C(=O)Nc1nc(-c2ccc3c(c2)CCC(=O)N3)cs1 [Compound 15] | 15 | 15 | > 25 | 1.3 | > 25 | 2 |  | > 25 | > 25 |  |  |  |  |  |  |  |  |
| Cc1ncccc1C(=O)Nc1nc(-c2ccc3c(c2)CCC(=O)N3)cs1 [Compound 17, 2-methyl-N-(4-(2-oxo-1,2,3,4-tetrahydroquinolin-6-yl)thiazol-2-yl)nicotinamide] | > 25 |  | 7 | 4 | > 25 | > 25 | > 25 | > 25 | 23 |  | > 25 |  |  |  |  |  |  |
| CCc1nc(C)c(C(=O)Nc2nc(-c3ccc4c(c3)CCC(=O)N4Cc3ccncc3)cs2)o1 [Compound 65, 2-ethyl-4-methyl-N-(4-(2-oxo-1-(pyridin-4-ylmethyl)-1,2,3,4-tetrahydroquinolin-6-yl)thiazol-2-yl)oxazole-5-carboxamide] | > 25 | > 25 | > 25 | 15 | > 25 | > 25 | > 25 | > 25 |  |  |  |  |  |  |  |  |  |
| Cc1nc(C)c(C(=O)Nc2nc(-c3ccc4c(c3)CCC(=O)N4)cs2)s1 [Compound 1, 2,4-dimethyl-N-(4-(2-oxo-1,2,3,4-tetrahydroquinolin-6-yl)thiazol-2-yl)thiazole-5-carboxamide] |  |  |  |  |  |  |  |  |  | 9.3 |  | 3.8 |  |  |  |  |  |
| Cc1nc(C(=O)Nc2nc(-c3ccc4c(c3)CCC(=O)N4)cs2)c(C)o1 [Compound 9, 2,5-dimethyl-N-(4-(2-oxo-1,2,3,4-tetrahydroquinolin-6-yl)thiazol-2-yl)oxazole-4-carboxamide] | > 25 |  | > 25 | > 25 | > 25 | > 25 | > 25 | > 25 | > 25 |  | > 25 |  |  |  |  |  |  |
| Cc1nc(C2CCCCC2)sc1C(=O)Nc1nc(-c2ccc3c(c2)CCC(=O)N3)cs1 [Compound 146, 2-cyclohexyl-4-methyl-N-(4-(2-oxo-1,2,3,4-tetrahydroquinolin-6-yl)thiazol-2-yl)thiazole-5-carboxamide] | > 25 |  | 13 | 8 | > 25 | 5 | > 25 | 9 | > 25 |  |  |  |  |  |  |  |  |
